Measured values as given in patent publication EP0628539B1, “Polyepoxysuccinic acid derivatives and their use for the control of scale formation and corrosion in aqueous systems” (BetzDearborn Europe, Inc., priority 1993, dated 1994).

Key:
[1] = Static calcium carbonate % inhibition evaluation (EDTA titration of filtrate calcium); conditions: 1106 ppm Ca as CaCO3, 1160 ppm CO3 as CaCO3, pH = 9.0, Temp. = 70°C, Duration = 17 hours
Method: Table II summarizes the static calcium carbonate inhibition testing of the compounds of the present invention compared to several prior art calcium carbonate control agents. The tests were performed by adding the treatment solution (sample) to a carbonate stock solution of the described conditions.
A calcium stock solution was then added and the mixture was incubated for 17 hours at 70°C. All treatments were adjusted to pH 9.0 prior to use and the treatment weights, expressed as the sodium salts, accounted for the presence of disodium tartrate by-product. After cooling, a measured portion of the mixture was filtered and the filtrate pH adjusted to less than 1 with hydrochloric acid. The filtrate was then diluted and pH adjusted to 12 with sodium hydroxide. A calcium indicator, murexide, was then added and the solution titrated with a known concentration of ethylenediaminetetraacetic acid (EDTA). From titrations for the treated, stock and control solutions, the percent inhibition was calculated as follows: % Inhibition =(mls EDTA(treated) - mls EDTA(control))/(mls EDTA(stock) - mls EDTA(control))x 100 [formula]

[2] = Beaker Corrosion Test Apparatus (BCTA): coupon and probe weight loss, electrochemical corrosion rate; conditions: 25 ppm, base treatment 1 ppm HEDP, 10 ppm acrylic copolymer, 15 ppm molybdate (PESA: no HEDP), pH 8.4, 120°F, 40 hours
Method: The corrosion inhibition activity of the present invention was evaluated with a Beaker Corrosion Test Apparatus (BCTA). […] The test solution volume is 1.9 liters.
Electrochemical corrosion rate data (EC) are obtained during the test from potentiodynamic polarization resistance measurements. Additional corrosion data is obtained from the coupon and the electrochemical probe by standard weight loss measurement techniques. All tests were conducted under the following conditions unless otherwise noted:
Under these conditions, the test water is supersaturated with respect to calcium carbonate. […] Therefore, all tests were conducted with a base treatment to inhibit the precipitation of calcium carbonate under the test conditions. The blank runs reported for all tests include the addition of the base treatment.
In all tests, the blank corrosion rates are expressed in mils per year (mpy). The corrosion rates for the inhibitor compounds are expressed as a reduction in the corrosion rate relative to the blank calculated according to the following equation: % Corrosion Inhibition =((mpy Blank - mpy Treated))/(mpy Blank)x 100 [formula]
All tests were conducted as parts per million of the inhibitor molecule as the sodium salt. Compound αHCA(12) was evaluated as ppm of the free acid.
A sample of poly[epoxysuccinic acid]

SMILES | Static Calcium Carbonate % Inhibition ([1]; 5 ppm Actives) [%] | Static Calcium Carbonate % Inhibition ([1]; 10 ppm Actives) [%] | Percent Corrosion Inhibition, Coupon ([2]; coupon weight loss relative to blank (62.4 mpy)) [%] | Percent Corrosion Inhibition, EC (avg) ([2]; electrochemical corrosion rate relative to blank (47.1 mpy)) [%] | Percent Corrosion Inhibition, Probe ([2]; probe weight loss relative to blank (58.9 mpy)) [%]
CC(O)(P(=O)(O)O)P(=O)(O)O [HEDP, 1-hydroxyethylidene-1,1-diphosphonic acid] | 73.1 | 71.3 | – | – | –
O=C([O-])C(O)[C@H](NCCS(=O)(=O)[O-])C(=O)[O-].[Na+].[Na+].[Na+] (stereo partly drawn) [αHCA(9), aspartic acid, 3-hydroxy, N-[2-ethanesulfonic acid]-trisodium salt] | 5.1 | 3.7 | 29.3 | 69.4 | 66.2
O=C(O)CCC(CC(=O)O)(C(=O)O)P(=O)(O)O (stereo not drawn) [PBSAM, 2-phosphonobutane - 1,2,4-tricarboxylic acid] | 67.5 | 76.0 | – | – | –
